According to patent publication US12072333B2, “Method and apparatus for selective removal of cells from a cell suspension by mechanical lysis” (UNIVERSITY OF IOWA RESEARCH FOUNDATION, priority 2016, dated 2024):

Tested on: prostate cancer cells
Test: Cell killing by ionomycin measured by uptake of trypan blue dye
Format: cell-based
Settings: prostate cancer cells treated with ionomycin; after 30 minute; FIG. 1B

With C[C@H](CCC(=O)O)C[C@H](C)C[C@H](C)C(=O)/C=C(\O)[C@H](C)C[C@H](C)C/C=C/[C@@H](C)[C@@H](O)[C@@H](C)[C@@H](O)C[C@@H]1CC[C@@](C)([C@H]2CC[C@@](C)([C@@H](C)O)O2)O1 [ionomycin] the “cell death as measured by uptake of trypan blue dye” value was “rapidly kills these cells”.
